Source: patent publication US4758421A (priority 1985, dated 1988)

How the values were obtained:
[1] = test system: Chinese hamster ovary (CHO) cells; test: CHO cell survival after 60 minutes exposure (FIG. 4); assay type: cell-based
Protocol: Chinese hamster ovary (CHO) cells were cultured in standard cell-culture medium, under log phase growth conditions. Increasing concentrations of either BL--Co--S--FeEDTA or FeEDTA were added to each of two groups of cells. The cells were incubated for 60 minutes at 37° C., and the percent cell survivors was determined conventionally by serial dilution in microtitre plates.

CHB235 = test: Binding constants with monoclonal antibody CHB235 by equilibrium dialysis; set-up: species or system mice; settings: specificity of antibody for the antibody-inducing antigen
Protocol: (§1) Monoclonal antibodies against L--benzyl--EDTA--In were prepared in cooperation with Hybritech, Inc., 11085 Toneyana Road, San Diego, Calif. 92121. Briefly, an L--benzyl--EDTA--In isothiocyanate reagent was reacted with keyhole limpet hemocyanin, which was used to immunize mice. Splenocytes derived from the immunized mice were fused with a suitable tumor cell line, using known somatic cell hybridization techniques. Promising clones were grown in mouse ascites fluid, and the antibodies obtained were purified by ion-exchange chromatography. Two antibodies against L--benzyl--EDTA--In, designated CHA255 and CHB235, were selected.
(§2) The binding constants of the two monoclonal antibodies with L--benzyl--EDTA chelates of several different metals were determined by equilibrium dialysis. The measured binding constants were shown in Table II below, with standard deviations indicated in parentheses.
(§3) Table III gives binding constant data from a second binding affinity study, involving different In--EDTA and In--HED3A chelates.

CHA255 = test: Binding constants with monoclonal antibody CHA255 by equilibrium dialysis; set-up: species or system mice; settings: specificity of antibody for the antibody-inducing antigen
Protocol: as §1, §2, §3

| Molecule | cell toxicity [1] | binding constant greater than for non-antigen metal chelates (CHB235) | binding constant greater than for non-antigen metal chelates (CHA255) |
| --- | --- | --- | --- |
| O=C([O-])CN(CCN(CC(=O)[O-])CC(=O)[O-])CC(=O)[O-].[Fe+3] [FeEDTA] | relatively non-toxic | – | – |
| L--benzyl--EDTA--In [In (III)] | – | 1 to 4 orders of magnitude | 1 to 4 orders of magnitude |
